For the test, the target named is Golgi-associated PDZ and coiled-coil motif-containing protein (Homo sapiens) (UniProt Q9HD26). Briefly: disruptors of CAL PDZ reporter peptide binding – biochemical, fluorescence polarization, untagged CAL PDZ, dry powder, dose response (AID 602255). Particulars: CAL PDZ / TMR peptide fluorescence polarization, 1 h; for activity change, negative = inhibition: at 35 µM (top of the series). Background: In fluorescence polarisation assays a small probe gives low polarisation when free and higher when bound to something large.

Molecules are shown by their SMILES. Activity calls are given as the source filed them.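 The calls were made as follows: active = falling polarization with an AC50 at most ten times the sample's highest valid dose; inconclusive = flat curve at 30 to 70% inhibition, or poor fit; inactive = rising signal, flat weak curves, or AC50 past limit.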

As for `O=C(O)CSc1cc(NS(=O)(=O)c2ccc(Br)cc2)c2ccccc2c1O`, the AC50 (usually the concentration at which the activity in the assay is half-maximal) was > 35 µM (inactive). Take `COc1ccc(S(=O)(=O)Nc2cc(SCC(=O)O)c(O)c3ccccc23)cc1`: the “activity change, negative = inhibition” value was “inactive”. Same read-out and setting: under `O=S(=O)(Nc1cc(Sc2ccccc2)c(O)c2ccccc12)c1ccc(Cl)cc1` stands “inactive”; under `O=S(=O)(Nc1ccc(O)c2ccccc12)c1ccccc1`, “inactive”.
